Our source for the IC50 values is US10059701B2 (Merck Patent GmbH, priority 2015, dated 2018).

One assay concerns the target T1, IRAK1 (Homo sapiens, UniProt P51617).
T1 construct: His-TEV-IRAK1 (194-712); His (N); TEV cleavage site (N)
Put plainly: IRAK1 enzymatic assay (ADP-Glo luminescence). The assay is classed as biochemical. The following applies: purified human recombinant His-TEV-IRAK1 (194-712). A digest of the protocol: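 Luminescent ADP-Glo read-out of ATP turnover by purified His-TEV-IRAK1 (194-712) at 0.3 μg/ml after a 2-hour RT reaction. Compounds, serially diluted from 10 μM to 0.5 nM, were preincubated with enzyme 15 minutes in Hepes pH 7.0 buffer with MgCl2, DTT, EGTA and Triton X-100.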
A general note: ADP-Glo turns the ADP formed in a reaction into a luminescent signal.

In the next assay the target is T2, IRAK4 (Homo sapiens, UniProt Q9NWZ3).
T2 construct: His-TEV-IRAK4 (1-460); His (N); TEV cleavage site (N)
T2 sequence (Q9NWZ3 1-460): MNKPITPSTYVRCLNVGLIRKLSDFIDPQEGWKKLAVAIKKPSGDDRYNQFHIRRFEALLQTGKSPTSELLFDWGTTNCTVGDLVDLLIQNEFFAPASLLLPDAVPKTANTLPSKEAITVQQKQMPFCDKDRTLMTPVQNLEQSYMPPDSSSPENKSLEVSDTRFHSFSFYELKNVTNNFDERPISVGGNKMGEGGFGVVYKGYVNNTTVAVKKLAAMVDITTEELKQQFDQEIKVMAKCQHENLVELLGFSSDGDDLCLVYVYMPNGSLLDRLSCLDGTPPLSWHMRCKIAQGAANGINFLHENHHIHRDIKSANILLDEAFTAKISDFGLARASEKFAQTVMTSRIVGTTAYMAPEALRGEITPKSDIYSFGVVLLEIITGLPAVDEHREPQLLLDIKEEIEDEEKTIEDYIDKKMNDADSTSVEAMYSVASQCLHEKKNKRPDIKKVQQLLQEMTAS
Put plainly: IRAK4 enzymatic assay (ADP-Glo luminescence). The assay is classed as biochemical. Conditions: purified human recombinant His-TEV-IRAK4 (1-460), ATP 2 μM. A digest of the protocol:
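ADP-Glo luminescence read-out after a 2 h RT kinase reaction with 2 μM ATP and 300 nM biotinylated STK1 peptide. Enzyme (His-TEV-IRAK4 1-460, 0.3 μg/ml) first incubated 15 min with serially diluted compounds (10 μM–0.5 nM) in 50 mM Hepes pH 7.0, 10 mM MgCl2, 5 mM MnCl2.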

As usually defined, the IC50 is the concentration that gives 50% inhibition.

T1 sequence (P51617 194-712): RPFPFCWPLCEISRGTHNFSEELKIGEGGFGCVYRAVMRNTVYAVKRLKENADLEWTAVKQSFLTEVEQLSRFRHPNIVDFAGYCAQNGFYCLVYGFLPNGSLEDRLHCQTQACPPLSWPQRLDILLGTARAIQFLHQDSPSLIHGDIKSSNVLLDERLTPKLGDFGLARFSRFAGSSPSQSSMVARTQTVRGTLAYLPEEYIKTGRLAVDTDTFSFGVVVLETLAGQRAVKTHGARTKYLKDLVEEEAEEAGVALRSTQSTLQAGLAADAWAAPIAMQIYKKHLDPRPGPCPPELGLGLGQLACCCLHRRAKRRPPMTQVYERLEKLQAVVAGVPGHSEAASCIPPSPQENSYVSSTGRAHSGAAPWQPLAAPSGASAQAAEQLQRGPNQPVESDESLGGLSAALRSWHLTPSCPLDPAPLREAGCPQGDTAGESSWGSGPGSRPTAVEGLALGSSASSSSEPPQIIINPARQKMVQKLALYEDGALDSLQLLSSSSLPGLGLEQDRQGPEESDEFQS

For `O=C(/N=c1\[nH]c2cc(N3CCCOC3=O)ccc2n1[C@@H]1C[C@H]1CO)c1cccc(C(F)(F)F)c1` (racemic) [Compound 144, rac-(E)-N-(1-((1R,2R)-2-(hydroxymethyl)cyclopropyl)-5-(2-oxo-1,3-oxazinan-3-yl)-1H-benzo[d]imidazol-2(3H)-ylidene)-3-(trifluoromethyl)benzamide], the figures for the IC50 at IRAK1 and at IRAK4 were over 1000 nM and at most 100 nM, respectively.
On the same counts, the results for `Cc1cc2c(cc1N1CCOCC1=O)[nH]/c(=N\C(=O)c1cc(F)cc(C(F)(F)F)c1)n2CCCO` [Compound 67, (E)-3-fluoro-N-(1-(3-hydroxypropyl)-6-methyl-5-(3-oxomorpholino)-1H-benzo[d]imidazol-2(3H)-ylidene)-5-(trifluoromethyl)benzamide] are at most 100 nM and at most 100 nM.
The corresponding values for `O=C(/N=c1\[nH]c2cc(N3CCSCC3=O)ccc2n1CCCO)c1cccc(C(F)(F)F)c1` [Compound 186, (E)-N-(1-(3-hydroxypropyl)-5-(3-oxothiomorpholino)-1H-benzo[d]imidazol-2(3H)-ylidene)-3-(trifluoromethyl)benzamide] are 100 to 1000 nM and at most 100 nM.
The corresponding values for `O=C(/N=c1\[nH]c2cc(N3CCCOC3=O)ccc2n1CC1(F)COC1)c1cccc(C(F)F)c1` [Example 227, (E)-3-(difluoromethyl)-N-(1-((3-fluorooxetan-3-yl)methyl)-5-(2-oxo-1,3-oxazinan-3-yl)-1H-benzo[d]imidazol-2(3H)-ylidene)benzamide] are 100 to 1000 nM and at most 100 nM.
With `O=C(/N=c1\[nH]c2cc(N3CCOCC3=O)ccc2n1[C@H]1CC[C@H](O)CC1)c1cccc(C(F)(F)F)c1` [Compound 32, trans-(E)-N-(1-(4-hydroxycyclohexyl)-5-(3-oxomorpholino)-1H-benzo[d]imidazol-2(3H)-ylidene)-3-(trifluoromethyl)benzamide], the figures for the IC50 on IRAK1 and at IRAK4 were 100 to 1000 nM and at most 100 nM, respectively.
On the same counts, the results for `CS(=O)(=O)c1cccc(C(=O)/N=c2\[nH]c3cc(N4CCOCC4=O)ccc3n2[C@H]2CC[C@@H](O)CC2)c1` [Compound 54, cis-(E)-N-(1-(4-hydroxycyclohexyl)-5-(3-oxomorpholino)-1H-benzo[d]imidazol-2(3H)-ylidene)-3-(methylsulfonyl)benzamide] are at most 100 nM and at most 100 nM.
The corresponding values for `O=C(O)Cn1/c(=N/C(=O)c2cccc(C(F)(F)F)c2)[nH]c2cc(N3CCOCC3=O)ccc21` [Compound 167, (E)-2-(5-(3-oxomorpholino)-2-((3-(trifluoromethyl)benzoyl)imino)-2,3-dihydro-1H-benzo[d]imidazol-1-yl)acetic acid] are over 1000 nM and over 1000 nM.
`C[C@H](CCO)n1/c(=N/C(=O)c2cccc(C(F)F)c2)[nH]c2cc(N3CCOCC3=O)ccc21` [Compound 242, (R,E)-3-(difluoromethyl)-N-(1-(4-hydroxybutan-2-yl)-5-(3-oxomorpholino)-1H-benzo[d]imidazol-2(3H)-ylidene)benzamide]: the IC50 on IRAK1 and on IRAK4 was at most 100 nM throughout.
For `N#Cc1cccc(C(=O)/C=C2\Nc3cc(N4CCOCC4=O)ccc3N2CCCO)c1` [Compound 146, (E)-3-(2-(1-(3-hydroxypropyl)-5-(3-oxomorpholino)-1H-benzo[d]imidazol-2(3H)-ylidene)acetyl)benzonitrile], the IC50 on IRAK1 and on IRAK4 was 100 to 1000 nM each time.
`C[S+]([O-])CCn1/c(=N/C(=O)c2cccc(C(F)F)c2)[nH]c2cc(N3CCOCC3=O)ccc21` (centres unmarked) [Compound 94, (E)-3-(difluoromethyl)-N-(1-(2-(methylsulfinyl)ethyl)-5-(3-oxomorpholino)-1H-benzo[d]imidazol-2(3H)-ylidene)benzamide]: the figures for the half-inhibitory concentration (IC50) on IRAK1 and on IRAK4 were 100 to 1000 nM and at most 100 nM, respectively.
The corresponding values for `COc1cc2c(cc1N1CCOCC1=O)[nH]/c(=N\C(=O)c1cc(F)cc(C(F)(F)F)c1)n2CCCO` [Compound 73, (E)-3-fluoro-N-(1-(3-hydroxypropyl)-6-methoxy-5-(3-oxomorpholino)-1H-benzo[d]imidazol-2(3H)-ylidene)-5-(trifluoromethyl)benzamide] are at most 100 nM and at most 100 nM.
On the same counts, the results for `O=C(/N=c1\[nH]c2cc(N3CCOCC3=O)ccc2n1CCCO)c1ccc2scnc2c1` [Example 232, (E)-N-(1-(3-hydroxypropyl)-5-(3-oxomorpholino)-1H-benzo[d]imidazol-2(3H)-ylidene)benzo[d]thiazole-5-carboxamide] are over 1000 nM and at most 100 nM.
On the same counts, the results for `O=C(/N=c1\[nH]c2cc(N3CCCOC3=O)ccc2n1CC1(C(=O)O)CC1)c1cccc(C(F)(F)F)c1` [Compound 174, (E)-1-((5-(2-oxo-1,3-oxazinan-3-yl)-2-((3-(trifluoromethyl)benzoyl)imino)-2,3-dihydro-1H-benzo[d]imidazol-1-yl)methyl)cyclopropanecarboxylic acid] are 100 to 1000 nM and at most 100 nM.
On to `Cc1cc2c(cc1N1CCOCC1=O)[nH]/c(=N\C(=O)c1cccc(C#N)c1)n2CCCO` [Compound 68, (E)-3-cyano-N-(1-(3-hydroxypropyl)-6-methyl-5-(3-oxomorpholino)-1H-benzo[d]imidazol-2(3H)-ylidene)benzamide], for which the results for the concentration for half-maximal inhibition (IC50) on IRAK1 and at IRAK4 were 100 to 1000 nM and at most 100 nM, respectively.
As for `O=C(/N=c1\[nH]c2cc(N3CCOCC3=O)ccc2n1CC1(CO)CC1)c1cccc(OC(F)F)c1` [Compound 66, (E)-3-(difluoromethoxy)-N-(1-((1-(hydroxymethyl)cyclopropyl)methyl)-5-(3-oxomorpholino)-1H-benzo[d]imidazol-2(3H)-ylidene)benzamide], the IC50 at IRAK1 was 100 to 1000 nM; at IRAK4 it was at most 100 nM.
The corresponding values for `CC1(C)COC(=O)N1c1ccc2c(c1)[nH]/c(=N\C(=O)c1cccc(C(F)F)c1)n2CCCO` [Example 196, (E)-3-(difluoromethyl)-N-(5-(4,4-dimethyl-2-oxooxazolidin-3-yl)-1-(3-hydroxypropyl)-1H-benzo[d]imidazol-2(3H)-ylidene)benzamide] are 100 to 1000 nM and at most 100 nM.
On the same counts, the results for `C[C@H](CCO)n1/c(=N/C(=O)c2cccc(C(F)(F)F)c2)[nH]c2cc(N3CCOCC3=O)ccc21` [Compound 15, (R,E)-N-(1-(4-hydroxybutan-2-yl)-5-(3-oxomorpholino)-1H-benzo[d]imidazol-2(3H)-ylidene)-3-(trifluoromethyl)benzamide] are 100 to 1000 nM and at most 100 nM.
The corresponding values for `[2H]C([2H])([2H])Oc1cc2c(cc1N1CCOCC1=O)[nH]/c(=N\C(=O)c1cccc(C(F)F)c1)n2CCCO` [Example 203, (E)-3-(difluoromethyl)-N-(1-(3-hydroxypropyl)-6-(trideuteromethoxy)-5-(3-oxomorpholino)-1H-benzo[d]imidazol-2(3H)-ylidene)benzamide] are at most 100 nM and at most 100 nM.
With `C[C@H](CCO)n1/c(=N/C(=O)c2cccc(C(F)F)c2)[nH]c2cc(N3CCCOC3=O)ccc21` [Compound 44, (R,E)-3-(difluoromethyl)-N-(1-(4-hydroxybutan-2-yl)-5-(2-oxo-1,3-oxazinan-3-yl)-1H-benzo[d]imidazol-2(3H)-ylidene)benzamide], the IC50 on IRAK1 was 100 to 1000 nM; on IRAK4, at most 100 nM.
The corresponding values for `N#Cc1cccc(C(=O)/N=c2\[nH]c3cc(N4CCCOC4=O)ccc3n2CC2(F)CCOCC2)c1` [Example 230, (E)-3-cyano-N-(1-((4-fluorotetrahydro-2H-pyran-4-yl)methyl)-5-(2-oxo-1,3-oxazinan-3-yl)-1H-benzo[d]imidazol-2(3H)-ylidene)benzamide] are 100 to 1000 nM and at most 100 nM.
Turning to `O=C(/N=c1\[nH]c2cc(N3CCOCC3=O)ccc2n1[C@H]1CC[C@@H](CO)CC1)c1cccc(C(F)(F)F)c1` [Compound 122, cis-(E)-N-(1-(4-(hydroxymethyl)cyclohexyl)-5-(3-oxomorpholino)-1H-benzo[d]imidazol-2(3H)-ylidene)-3-(trifluoromethyl)benzamide], the IC50 at IRAK1 and at IRAK4 was at most 100 nM in each case.
As for `O=C(/N=c1\[nH]c2cc(N3CCOCC3=O)ccc2n1C1(CCO)CCCCC1)c1cccc(C(F)(F)F)c1` [Compound 114, (E)-N-(1-(1-(2-hydroxyethyl)cyclohexyl)-5-(3-oxomorpholino)-1H-benzo[d]imidazol-2(3H)-ylidene)-3-(trifluoromethyl)benzamide], the IC50 on IRAK1 and on IRAK4 was over 1000 nM throughout.
